# Reference: BindingDB's records for doi:10.1021/jm980560x (University of Minnesota, 1999)
# Molecular target: not listed separately
# Experiment: Displacement of [3H]vesamicol from Vesicular Acetylcholine Transporter (VAChT)
row,SMILES,Ki [nM]
1,"O[C@@H]1C[C@@H]2[C@H](CCCN2Cc2cccc(I)c2)C[C@H]1N1CCC(c2ccccc2)CC1 [(4aR,6R,7R,8aR)-1-(3-Iodo-benzyl)-6-(4-phenyl-piperidin-1-yl)-decahydro-quinolin-7-ol]",5.2
2,O[C@@H]1C[C@H]2CCCN(Cc3cccc(I)c3)[C@@H]2C[C@H]1N1CCC(c2ccccc2)CC1 [trans-trans-1-(3-iodobenzyl)-7-(4-phenylpiperidin-1-yl)-decahydroquinolin-6-ol],0.26
3,"O=C(c1ccccc1)N1CCC[C@@H]2C[C@@H](O)[C@H](N3CCC(c4ccccc4)CC3)C[C@H]21 [[(4aR,6R,7R,8aR)-6-Hydroxy-7-(4-phenyl-piperidin-1-yl)-octahydro-quinolin-1-yl]-phenyl-methanone]",0.3
4,O[C@@H]1C[C@H]2CCCN(Cc3ccc(F)cc3)[C@@H]2C[C@H]1N1CCC(c2ccccc2)CC1 [trans-trans-1-(4-fluorobenzyl)-7-(4-phenylpiperidin-1-yl)-decahydroquinolin-6-ol],0.99

# Further lines, results first:
row,Ki [nM],SMILES
1,2900,O[C@@H]1CCNC[C@H]1N1CCC(c2ccccc2)CC1
2,10,"O[C@@H]1C[C@@H]2[C@H](CCCN2Cc2ccc(F)cc2)C[C@H]1N1CCC(c2ccccc2)CC1 [(4aR,6R,7R,8aR)-1-(4-Fluoro-benzyl)-6-(4-phenyl-piperidin-1-yl)-decahydro-quinolin-7-ol]"
3,0.4,"O[C@@H]1C[C@H]2CCCN(C/C=C/I)[C@@H]2C[C@H]1N1CCC(c2ccccc2)CC1 [(4aR,6R,7R,8aR)-1-((E)-3-Iodo-allyl)-7-(4-phenyl-piperidin-1-yl)-decahydro-quinolin-6-ol]"

# Molecular target: Sigma-2 receptor (Rattus norvegicus)
# Experiment: Binding affinity against Sigma-2 receptor in rat liver membranes using [3H]DTG (DuPont-NEN) as radioligand in the presence of (+)-pentazocine (100 nM)
row,SMILES,Ki [nM]
1,"O[C@@H]1CCN(Cc2cccc(I)c2)C[C@H]1N1CCC(c2ccccc2)CC1 [(-)-1''-(3-Iodo-benzyl)-4-phenyl-[1,3'']bipiperidinyl-4''-ol]",190
2,"O[C@@H]1C[C@H]2CCCN(C/C=C/I)[C@@H]2C[C@H]1N1CCC(c2ccccc2)CC1 [(4aR,6R,7R,8aR)-1-((E)-3-Iodo-allyl)-7-(4-phenyl-piperidin-1-yl)-decahydro-quinolin-6-ol]",363
